Where “and” joins values, the source holds several entries; their conditions need not be identical. Equal entries are not always repeated. After the bases stand the sugars from the 5' end (letter, count) and the backbone: PS all phosphorothioate, else s phosphorothioate and o phosphodiester by linkage. Methylation of C is not given here. e = 2'-O-(2-methoxyethyl) (MOE); k = constrained ethyl (cEt); d = 2'-deoxy (DNA)

The target of the first series is IRF4. To be noted: ASO, MM.1R, 0.074 µM.
For the sequence CTTTTTTGGCTCCCTC (sugars k4 d8 k4, PS), the target mRNA inhibition was -3%.

The same series, now with this note: ASO, MM.1R, 0.222 µM.
For CTTTTTTGGCTCCCTC (sugars k4 d8 k4, PS), the target mRNA inhibition is -3%.

Still in this series, the particulars now being: ASO, MM.1R, 0.666 µM.
With CTTTTTTGGCTCCCTC (sugars k4 d8 k4, PS), the target mRNA inhibition is 9%.

The series is the same for the next values; noted with them: ASO, MM.1R, 1 µM.
Turning to GAAACCCTCATCACCG (sugars k3 d10 k3, PS), the target mRNA inhibition is -38%.
On the same count and under the same terms, the result for GAAACGAGTTGACACA (sugars k3 d10 k3, PS) reads 0%; that for GAAATGAACCCTAAGT (sugars k3 d10 k3, PS), -5%.
As to GAAGCATTTTATCATC (sugars k3 d10 k3, PS), the target mRNA inhibition amounted to 4%.
Same read-out and setting: for “GAAGCATTTTATCATC (sugars kkddddddddddkeke, PS)” the value was -7%; for “GAAGCATTTTATCATC (sugars kkdddddddddekeke, PS)”, 6%; for “GAAGCATTTTATCATC (sugars kkdddddddddkdkdk, PS)”, 1%.
Take “GAAGTTTACACTGGAT (sugars e1 k2 d9 k2 e2, PS)”: the target mRNA inhibition worked out at 48%.
The same measure, in the same setting: the result for “GAAGTTTACACTGGAT (sugars k3 d9 k3 e1, PS)” reads 45%; that for “GAAGTTTACACTGGAT (sugars kddddddddddkekek, PS)”, 27%; that for “GAAGTTTACACTGGAT (sugars kkkddddddddkekek, PS)”, 52%.
The same measure, in the same setting: the result for GAATAGGACCCCTATC (sugars k3 d10 k3, PS) reads -3%.
The same measure, in the same setting: for “GACACTTTTAGAGAGG (sugars e1 k2 d9 k2 e2, PS)” the value was 24%; for “GACACTTTTAGAGAGG (sugars k3 d9 k3 e1, PS)”, 24%; for “GACACTTTTAGAGAGG (sugars kkdddddddddkekek, PS)”, 17%.
For the sequence “GACACTTTTAGAGAGG (sugars kkkdddddddddkeke, PS)”, the target mRNA inhibition was determined as 24%.

Staying with this series, now noted: ASO, MM.1R, 2 µM.
As for CTTTTTTGGCTCCCTC (sugars k4 d8 k4, PS), the target mRNA inhibition turned out to be 25%.

Staying with this series, now noted: ASO, SK-MEL-28, 0.185 µM.
Regarding CTTTTTTGGCTCCCTC (sugars k4 d8 k4, PS), the target mRNA inhibition is 4% and 9% and 8%.

The series is the same for the next values; noted with them: ASO, SK-MEL-28, 4 µM.
CTTTTTTGGCTCCCTC (sugars k4 d8 k4, PS): the target mRNA inhibition was 46%.
For GAAAACTCTAACCCTA (sugars k3 d10 k3, PS), the target mRNA inhibition is 9%.
Same read-out and setting: for GAAAAGAGCCGCCACA (sugars k3 d10 k3, PS) the value was 7%.
The same measure, in the same setting: the result for GAAACAGAGACGCGGT (sugars k3 d10 k3, PS) reads 1%.
Same read-out and setting: the result for GAAAGAGGCACCCTCC (sugars k3 d10 k3, PS) reads 19%; that for GAAATATACCAGCTCA (sugars k3 d10 k3, PS), 61%; that for GAAATGGAGCATCCGC (sugars k3 d10 k3, PS), 32%.
As to GAAATGTCAAACCCTA (sugars k3 d10 k3, PS), the target mRNA inhibition turned out to be 71%.
The same measure, in the same setting: the result for GAACACACCAGGTTAA (sugars k3 d10 k3, PS) reads -2%; that for GAACGCACGGACGAAC (sugars k3 d10 k3, PS), 18%; that for GAAGAATAAACACCCC (sugars k3 d10 k3, PS), 52%.
With GAAGAGATCAGCTGCC (sugars k3 d10 k3, PS), the target mRNA inhibition was found to be 42%.
The same measure, in the same setting: the result for GAAGGATGATCAGCTT (sugars k3 d10 k3, PS) reads 26%.
The same measure, in the same setting: for GAAGTTTACACTGGAT (sugars k3 d10 k3, PS) the value was 65%; for GAATAGAGGAATGGCG (sugars k3 d10 k3, PS), 39%.
Still for that read-out and setting: the result for GAATAGGAAGATATCA (sugars k3 d10 k3, PS) reads 6%; that for GAATTTCAGGAGCTAG (sugars k3 d10 k3, PS), 61%; that for GAATTTCCATTGGAGG (sugars k3 d10 k3, PS), 43%.
Regarding GACAAGTGCTAGGATT (sugars k3 d10 k3, PS), the target mRNA inhibition was 61%.

Staying with this series, now noted: ASO, SK-MEL-28, 5 µM.
As for CTTTTTTGGCTCCCTC (sugars k4 d8 k4, PS), the target mRNA inhibition was 45% and 42% and 62%.

The series is the same for the next values; noted with them: ASO, SK-MEL-28, 15 µM.
With CTTTTTTGGCTCCCTC (sugars k4 d8 k4, PS), the target mRNA inhibition was 63% and 68% and 81%.

Source of the values: the OligoGym collection.
